Reference: patent publication US9464076B2, “Benzothiophene derivative” (Daiichi Sankyo Company, Limited, priority 2013, dated 2016)
Structures can show the parent of a compound that is named as a salt.

Legend:
[1] = test system: Male C57BL/6 Cr mice; test: Test on suppression of phencyclidine-induced hyperlocomotion in mice; format: in vivo; details: Mus musculus, oral, calculated by the linear regression method
[2] = molecular target: PDE10A (Homo sapiens (Human), UniProt Q9Y233); test: Measurement of PDE10A inhibitory activity-2 (PDE10A fraction prepared from MOLT-4 cells); format: biochemical; details: PDE10A fraction from MOLT-4 cells (peak around 250 mM NaCl)
How it was run: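 Enzyme source was a PDE10A-containing fraction from MOLT-4 cell soluble extract, resolved by HiTrap Q anion exchange with a 0–0.8 M NaCl gradient and selected by cAMP-hydrolysing activity. IC50 determined with this fraction by the same procedure as the preceding PDE10A assay.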

[3] = test system: Male C57BL/6 Cr mice; test: Test on suppression of phencyclidine-induced hyperlocomotion in mice; format: in vivo, mouse; details: locomotor activity, test compound 10 mg/kg oral, phencyclidine 5 mg/kg s.c. approx. 1 hour later, measured for 1 hour; for inhibition in vivo at 10 mg/kg: Mus musculus, po, 1 h
[4] = molecular target: PDE10A (H-PDE10A2, Human Phosphodiesterase 10A2) (Homo sapiens (Human), UniProt Q9Y233); test: Measurement of PDE10A inhibitory activity-1 (3H-cAMP, recombinant enzyme); format: biochemical; details: H-PDE10A2, 64 nM cAMP, 25° C., 2 hours
Protocol: To a solution containing 20 mM Tris-HCl (pH 7.5), 1 mM MgCl2, 100 μM EDTA, 330 μg/ml bovine serum albumin, 50 kU/ml 5′-nucleotidase, 0.1 μCi ^3H-cAMP (64 nM cAMP), and PDE10A (H-PDE10A2, Human Phosphodiesterase 10A2, Scottish Biomedical), a test compound was added, and the mixture was reacted at 25° C. for 2 hours. To the reaction solution, QAE-Sephadex (17-0190-01, GE Healthcare Japan Corp.) suspended in 10 mM HEPES-Na (pH 7.0) (hereinafter, also referred to as a “QAE-Sephadex suspension”) was added, and the mixture was shaken for 1 minute and left standing for 5 minutes to obtain a supernatant. To the supernatant, a QAE-Sephadex suspension was further added, and the mixture was shaken for 1 minute and left standing for 5 minutes. Then, the obtained supernatant was transferred to LumaPlate (PerkinElmer, Inc.) and assayed using a radiation counter (TopCount NXT, PerkinElmer, Inc.).
The value of the sample reacted without the addition of both a test compound and PDE10A was defined as 0%, and the value of the sample reacted in the presence of PDE10A without the addition of a test compound was defined as 100%.

Chain of PDE10A (H-PDE10A2, Human Phosphodiesterase 10A2) (Q9Y233 267-1055): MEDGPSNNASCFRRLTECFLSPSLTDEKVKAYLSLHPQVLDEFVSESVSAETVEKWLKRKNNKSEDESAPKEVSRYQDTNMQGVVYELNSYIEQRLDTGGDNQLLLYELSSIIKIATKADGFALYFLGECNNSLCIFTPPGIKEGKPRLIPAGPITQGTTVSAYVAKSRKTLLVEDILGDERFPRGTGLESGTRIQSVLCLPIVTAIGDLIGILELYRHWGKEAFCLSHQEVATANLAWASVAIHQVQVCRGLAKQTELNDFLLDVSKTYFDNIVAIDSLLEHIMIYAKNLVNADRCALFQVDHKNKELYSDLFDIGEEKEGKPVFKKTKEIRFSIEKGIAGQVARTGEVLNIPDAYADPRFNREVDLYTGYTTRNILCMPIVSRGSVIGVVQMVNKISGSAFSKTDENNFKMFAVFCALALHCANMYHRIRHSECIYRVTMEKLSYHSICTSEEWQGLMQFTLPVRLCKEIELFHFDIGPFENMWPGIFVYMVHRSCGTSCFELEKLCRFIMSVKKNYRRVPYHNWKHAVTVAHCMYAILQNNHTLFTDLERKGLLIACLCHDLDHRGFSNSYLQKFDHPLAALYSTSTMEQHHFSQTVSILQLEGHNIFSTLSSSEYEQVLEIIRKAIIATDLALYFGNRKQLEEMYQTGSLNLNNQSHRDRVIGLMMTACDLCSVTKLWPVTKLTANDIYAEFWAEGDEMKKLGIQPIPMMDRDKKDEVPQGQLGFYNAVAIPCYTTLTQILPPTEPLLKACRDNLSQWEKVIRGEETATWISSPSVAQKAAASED
Chain of PDE10A (Q9Y233 whole entry): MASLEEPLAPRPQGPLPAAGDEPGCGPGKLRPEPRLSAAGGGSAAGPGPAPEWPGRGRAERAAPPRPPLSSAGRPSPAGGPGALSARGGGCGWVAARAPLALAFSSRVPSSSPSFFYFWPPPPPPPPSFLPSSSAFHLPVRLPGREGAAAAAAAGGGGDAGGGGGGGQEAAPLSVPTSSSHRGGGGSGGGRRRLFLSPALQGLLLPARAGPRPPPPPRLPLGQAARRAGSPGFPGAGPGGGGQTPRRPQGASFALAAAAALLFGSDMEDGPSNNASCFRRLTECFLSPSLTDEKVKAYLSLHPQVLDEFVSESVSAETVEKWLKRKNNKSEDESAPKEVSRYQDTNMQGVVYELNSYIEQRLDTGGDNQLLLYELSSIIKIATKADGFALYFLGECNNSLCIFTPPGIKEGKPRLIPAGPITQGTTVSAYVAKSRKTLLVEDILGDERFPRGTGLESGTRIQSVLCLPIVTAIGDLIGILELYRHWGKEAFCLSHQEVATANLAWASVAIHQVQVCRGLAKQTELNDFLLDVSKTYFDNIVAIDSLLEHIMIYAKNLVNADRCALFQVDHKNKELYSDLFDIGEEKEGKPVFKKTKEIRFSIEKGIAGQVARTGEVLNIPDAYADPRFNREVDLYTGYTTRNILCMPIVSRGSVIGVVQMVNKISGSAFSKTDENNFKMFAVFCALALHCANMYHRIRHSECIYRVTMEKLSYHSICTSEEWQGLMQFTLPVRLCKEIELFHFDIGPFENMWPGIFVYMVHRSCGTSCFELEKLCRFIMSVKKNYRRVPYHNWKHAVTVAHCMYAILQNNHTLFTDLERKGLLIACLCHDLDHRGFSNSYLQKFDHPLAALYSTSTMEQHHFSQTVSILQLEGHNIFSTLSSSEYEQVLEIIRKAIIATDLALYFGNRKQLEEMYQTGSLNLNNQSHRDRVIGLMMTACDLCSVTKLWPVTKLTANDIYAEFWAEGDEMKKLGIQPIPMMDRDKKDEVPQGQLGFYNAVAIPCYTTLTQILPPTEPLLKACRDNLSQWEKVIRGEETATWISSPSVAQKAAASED

| Structure (SMILES) | ED50 [1] [mg/kg] | % inhibition [3] [%] | IC50 [2] [pM] | inhibition in vivo at 10 mg/kg [3] [%] | IC50 [4] [pM] | other results |
| --- | --- | --- | --- | --- | --- | --- |
| COCc1cccc2nc(NC(=O)c3sc4c(C(C)=O)ccc(COC)c4c3C)ccc12 [Example 69, 7-Acetyl-4-(methoxymethyl)-N-(5-(methoxymethyl)quinolin-2-yl)-3-methylbenzo[b]thiophene-2-carboxamide methanesulfonate] | 3 | 81 | – | – | – | IC50 ([2]; methanesulfonate): 380 pM |
| COCc1ccc(C(C)=O)c2sc(C(=O)Nc3ccc4c(C(=O)N5CC(OC)C5)cccc4n3)c(C)c12.Cc1ccc(S(=O)(=O)O)cc1 [Example 106, 7-Acetyl-N-(5-((3-methoxyazetidin-1-yl)carbonyl)quinolin-2-yl)-4-(methoxymethyl)-3-methylbenzo[b]thiophene-2-carboxamide p-toluenesulfonate] | 2.2 | 87 | – | – | – | IC50 ([2]; p-toluenesulfonate): 500 pM |
| COCc1ccc(C(C)=O)c2sc(C(=O)Nc3ccc4c(CO)cccc4n3)c(C)c12.Cc1ccc(S(=O)(=O)O)cc1 [Example 81, 7-Acetyl-N-(5-(hydroxymethyl)quinolin-2-yl)-4-(methoxymethyl)-3-methylbenzo[b]thiophene-2-carboxamide p-toluenesulfonate] | 3.3 | 122 | – | – | – | – |
| COCc1ccc(C(C)=O)c2sc(C(=O)Nc3cc(CN4CC[C@@H](O)C4)c4ccccc4n3)c(C)c12 [Example 39, (R)-7-Acetyl-N-(4-((3-hydroxypyrrolidin-1-yl)methyl)quinolin-2-yl)-4-(methoxymethyl)-3-methylbenzo[b]thiophene-2-carboxamide] | 3.1 | – | 350 | 103 | 410 | – |
| COCc1cccc2nc(NC(=O)c3sc4c(C(C)=O)ccc(COC)c4c3C)ccc12.Cl [Example 68, 7-Acetyl-4-(methoxymethyl)-N-(5-(methoxymethyl)quinolin-2-yl)-3-methylbenzo[b]thiophene-2-carboxamide hydrochloride] | 3.6 | 121 | – | – | – | IC50 ([2]; hydrochloride): 930 pM; IC50 ([4]; hydrochloride): 1900 pM |
| COCc1ccc(C(C)=O)c2sc(C(=O)Nc3ccc4c(CN5CC[C@@H](O)C5)cccc4n3)c(C)c12 [Example 64, (R)-7-Acetyl-N-(5-((3-hydroxypyrrolidin-1-yl)methyl)quinolin-2-yl)-4-(methoxymethyl)-3-methylbenzo[b]thiophene-2-carboxamide dihydrochloride] | 7.2 | – | 760 | 109 | – | – |
| COCc1ccc(C(C)=O)c2sc(C(=O)Nc3ccc4c(CN5CCOCC5)cccc4n3)c(C)c12.Cl [Example 61, 7-Acetyl-4-(methoxymethyl)-3-methyl-N-(5-(morpholinomethyl)quinolin-2-yl)benzo[b]thiophene-2-carboxamide hydrochloride] | 5.7 | – | – | 122 | – | – |
| COCc1ccc(C(C)=O)c2sc(C(=O)Nc3cc(CN4CC[C@H](O)C4)c4ccccc4n3)c(C)c12 [Example 38, (S)-7-Acetyl-N-(4-((3-hydroxypyrrolidin-1-yl)methyl)quinolin-2-yl)-4-(methoxymethyl)-3-methylbenzo[b]thiophene-2-carboxamide] | 7 | – | 230 | 88 | 420 | – |
| COCc1ccc(C(C)=O)c2sc(C(=O)Nc3ccc4c(C(=O)N5CC(OC)C5)cccc4n3)c(C)c12 [Example 102, 7-Acetyl-N-(5-((3-methoxyazetidin-1-yl)carbonyl)quinolin-2-yl)-4-(methoxymethyl)-3-methylbenzo[b]thiophene-2-carboxamide] | – | 120 | 300 | – | 700 | – |
